Assay results: publication PMC8621208, “Antiseptic 9-Meric Peptide with Potency against Carbapenem-Resistant Acinetobacter baumannii Infection” (International Journal of Molecular Sciences, 2021)
≈ marks a conversion by molar mass, not a printed value. Where two headings read alike, the source gives them in different places. Where a SMILES comes first, the peptide text is derived from it. Where no end group is shown, it is not given here. [ ]: non-standard residue; d: D form.

Key:
A. baumannii [1] = assay: MIC, broth dilution; assay type: cell-based, Acinetobacter baumannii KCCM 40203; conditions: 16 h, MH media, read-out: Minimal Inhibitory Concentration (MIC)
Excerpt: (§1) Escherichia coli KCTC 1682 was obtained from the Korean Collection for Type Cultures (KCTC) (Jeongeup-si, Korea), Acinetobacter baumannii KCCM 40203, Pseudomonas aeruginosa KCCM 11328 from the Korea Culture Center of Microorganisms (KCCM) (Seoul, Korea). Klebsiella pneumoniae NCCP 16054 were obtained from the National Culture Collection for Pathogens (NCCP) (Osong, Korea). Additionally, two carbapenem-resistant E. coli (CREC E1 and E2), 11 carbapenem-resistant A. baumannii (CRAB C0–C10) and two carbapenem-resistant K. pneumoniae (CRKP K1 and K2) were isolated from the patients, who presented symptoms and signs of infection at Korea University Anam Hospital (Seoul, Korea) (IRB registration no. 2020AN0157, 4 March 2021). CRAB C0–C10 have the OXA-23 gene with carbapenem-resistance.
(§2) The minimum inhibitory concentrations (MIC) were determined using broth dilution method. Briefly, all the mentioned bacterial strains were grown overnight at 37 °C by Muller–Hinton (MH) media. […] After 16 h incubation, the bacterial growth was read at 600 nm using a SpectraMAX microplate reader (Molecular Devices, San Jose, CA, USA).

[2] = tested on: sheep red blood cells (sRBC); assay: Hemolytic assay; assay type: cell-based; conditions: 100 μM
Experimental: The peptide-induced toxicity was determined by hemolytic against Sheep red blood cells (sRBC). Briefly, Fresh sRBC were washed at least three times with phosphate-buffered saline (PBS) and the debris were removed by centrifugation (1000× g for 5 min, 4 °C). All the peptides including melittin control (0.2–100 μM) and positive control (1% (v/v) triton X-100) were incubated with 4% (v/v) sRBC for 1 h at 37 °C followed by centrifugation at 1000× g for 5 min. The supernatant was measured at 405 nm using a microplate reader.

CRKP K1 = assay: MIC, broth dilution; assay type: cell-based, carbapenem-resistant K. pneumoniae; conditions: read-out: Minimal Inhibitory Concentration (MIC)
Excerpt: as §1, §2

CRKP K2 = assay: MIC, broth dilution; assay type: cell-based, carbapenem-resistant K. pneumoniae; conditions: read-out: Minimal Inhibitory Concentration (MIC)
Excerpt: as §1, §2

CRAB C0 [3] = assay type: cell-based, carbapenem-resistant A. baumannii; conditions: peptide pre-incubated 6 h at 37 °C
Experimental: (§3) All the peptides at their MICs were pre-incubated with proteolytic enzymes such as trypsin and α-chymotrypsin (10,000:1; peptide: enzyme ratio) for 6 h at 37 °C. Then, 100 μL of peptide-protease cocktail was added to the 100 µL bacterial suspension (E. coli, A. baumannii and CRAB C0, 2 × 10^5 CFU/mL) and further incubated for 16 h at 37 °C. Bacterial suspension without peptide and protease served as negative control. The analysis was repeated at three times using independent experiments, and the degree of bacterial growth was measured at 600 nm using a microplate reader.

[4] = tested on: human kidney (HK)-2 cells; assay: Cytotoxicity, WST-8 assay; assay type: cell-based; conditions: 24 h; for Toxicity in HK-2 cells: up to 100 μM
Experimental: (§4) Figure 6 In vitro cytotoxicity of Pro9-3 and their analogues. (A) Dose-response curve represent the hemolytic activity of peptides against sheep red blood cell (sRBC). Concentration-dependent (0–100 μM) toxic effects induced by peptides on (B) RAW 264.7 murine macrophage cells and (C) human kidney (HK)-2 cells for 24 h. Melittin was used as a control. Statistical analysis was performed using two-way analysis of variance (ANOVA) with Dunnett’s comparison test. Values are expressed as mean ± SEM of three independent experiments. * p < 0.05, ** p < 0.01, *** p < 0.001, and ns, non-significant compared with the control.
(§5) RAW 264.7 mouse macrophage cells and Human kidney (HK)-2 cells were obtained from Korean cell line bank (Seoul, Korea) and the cells were maintained in DMEM culture media (Thermo Fischer Scientific Inc., Waltham, MA, USA) supplemented with 10% fetal bovine serum, 1% penicillin/streptomycin at 37 °C in a humidified 5% CO2 incubator. The cytotoxicity of the peptides was analyzed using WST-8 cell proliferation assay (Biomax Co, Ltd., Seoul, Korea), and the experiment was performed according to the kit protocol. Briefly, cells (1 × 10^4) were seeded in 96-well plate and the peptides treatment (0–100 μM) were initiated at 80% confluency and then for 24 h. After incubation, WST-8 reagent was added and the change in absorbance was read at 450 nm against reagent blank, and values are expressed as percent cell survival.

CRAB C0 outer membrane = assay: Outer membrane permeability, NPN uptake; assay type: cell-based, carbapenem-resistant A. baumannii
Experimental: The effect of peptides on the disturbance of CRAB C0 outer membrane was analyzed using 1-N-phenylnaphthylamine (NPN, Sigma-Aldrich, St. Louis, MO, USA) uptake assay, as previously described. Briefly, CRAB C0 cell suspensions were mixed with NPN (1 mM) and the background fluorescence was recorded for subtraction (excitation λ = 350 nm, emission λ = 420 nm) using RF-6000PC fluorescent spectrophotometer (Shimadzu Scientific Instruments, Kyoto, Japan). Changes in the NPN fluorescence were recorded after addition of different concentrations of peptides and values are expressed as—fluorescence intensity (A.U.).

[5] = tested on: RAW 264.7 murine macrophage cells; assay: Cytotoxicity, WST-8 assay; assay type: cell-based, mouse; conditions: 24 h
Experimental: as §4, §5

E. coli [6] = assay: MIC, broth dilution; assay type: cell-based, Escherichia coli KCTC 1682; conditions: E. coli; 16 h, MH media; read-out: Minimal Inhibitory Concentration (MIC)
Excerpt: as §1, §2

CRAB C1 = assay: microbe, parasite or virus in culture; conditions: CRAB C1
Excerpt: as §1, §2

CRAB C8 = assay: microbe, parasite or virus in culture; conditions: CRAB C8
Excerpt: as §1, §2

K. pneumoniae = assay: microbe, parasite or virus in culture; conditions: 16 h
Excerpt: as §1, §2

CRAB C5 = assay: MIC, broth dilution; assay type: cell-based, carbapenem-resistant A. baumannii; conditions: read-out: Minimal Inhibitory Concentration (MIC)
Excerpt: as §1, §2

CRAB C7 = assay: MIC, broth dilution; assay type: cell-based, carbapenem-resistant A. baumannii; conditions: read-out: Minimal Inhibitory Concentration (MIC)
Excerpt: as §1, §2

CRAB C4 = assay: MIC, broth dilution; assay type: cell-based, carbapenem-resistant A. baumannii; conditions: read-out: Minimal Inhibitory Concentration (MIC)
Excerpt: as §1, §2

CRAB C6 = assay: MIC, broth dilution; assay type: cell-based, carbapenem-resistant A. baumannii; conditions: read-out: Minimal Inhibitory Concentration (MIC)
Excerpt: as §1, §2

CRAB C0 [7] = assay: MIC, broth dilution; assay type: cell-based, carbapenem-resistant A. baumannii; conditions: read-out: Minimal Inhibitory Concentration (MIC)
Excerpt: as §1, §2

CRAB C3 = assay: MIC, broth dilution; assay type: cell-based, carbapenem-resistant A. baumannii; conditions: read-out: Minimal Inhibitory Concentration (MIC)
Excerpt: as §1, §2

CRAB C2 = assay: MIC, broth dilution; assay type: cell-based, carbapenem-resistant A. baumannii; conditions: read-out: Minimal Inhibitory Concentration (MIC)
Excerpt: as §1, §2

CRAB C10 = assay: MIC, broth dilution; assay type: cell-based, carbapenem-resistant A. baumannii; conditions: read-out: Minimal Inhibitory Concentration (MIC)
Excerpt: as §1, §2

CRAB C9 = assay: MIC, broth dilution; assay type: cell-based, carbapenem-resistant A. baumannii; conditions: read-out: Minimal Inhibitory Concentration (MIC)
Excerpt: as §1, §2

P. aeruginosa = assay: MIC, broth dilution; assay type: cell-based, Pseudomonas aeruginosa KCCM 11328; conditions: 16 h, MH media, read-out: Minimal Inhibitory Concentration (MIC)
Excerpt: as §1, §2

CREC E2 = assay: MIC, broth dilution; assay type: cell-based, carbapenem-resistant E. coli; conditions: read-out: Minimal Inhibitory Concentration (MIC)
Excerpt: as §1, §2

CREC E1 = assay: MIC, broth dilution; assay type: cell-based, carbapenem-resistant E. coli; conditions: read-out: Minimal Inhibitory Concentration (MIC)
Excerpt: as §1, §2

E. coli [8] = assay type: cell-based, Escherichia coli; conditions: peptide pre-incubated 6 h at 37 °C
Experimental: as §3

A. baumannii [9] = assay type: cell-based, Acinetobacter baumannii; conditions: peptide pre-incubated 6 h at 37 °C
Experimental: as §3

Row | Molecule | MIC (A. baumannii [1]) | Hemolytic activity [2] | MIC (CRKP K1) | MIC (CRKP K2) | Minimal Inhibitory Concentration (MIC) (CRAB C0 [3]; CRAB C0 + Trypsin) | Minimal Inhibitory Concentration (MIC) (CRAB C0 [3]; CRAB C0 + α-Chymotrypsin) | MIC (E. coli [6]) | Minimal Inhibitory Concentration (MIC) (CRAB C1) | Minimal Inhibitory Concentration (MIC) (CRAB C8) | MIC (CRAB C5) | MIC (CRAB C7) | MIC (CRAB C4) | MIC (CRAB C6) | MIC (CRAB C0 [7]) | MIC (CRAB C3) | MIC (CRAB C2) | MIC (CRAB C10) | MIC (CRAB C9) | MIC (P. aeruginosa) | MIC (CREC E2) | other results
1 | CC[C@@H](C)[C@@H](NC(=O)[C@@H](C)NC(=O)[C@@H](CC(C)C)NC(=O)[C@@H](Cc1c[nH]c2ccccc12)NC(=O)[C@@H](CC(C)C)NC(=O)[C@H](N)CCCNC(=N)N)C(=O)N[C@H](Cc1c[nH]c2ccccc12)C(=O)N[C@H](CCCNC(=N)N)C(=O)N[C@H](CCCNC(=N)N)C(N)=O [Pro9-3D, rlwlaiwrr-NH2] (H-[dR][dL][dW][dL][dA][dI][dW][dR][dR]-NH2) | 4 µM (≈ 5.07 µg/mL) | 1.9% | 16 µM (≈ 20.3 µg/mL) | 8 µM (≈ 10.1 µg/mL) | 4 µM | 4 µM | 8 µM (≈ 10.1 µg/mL) | 8 µM | 8 µM | 8 µM (≈ 10.1 µg/mL) | 8 µM (≈ 10.1 µg/mL) | 8 µM (≈ 10.1 µg/mL) | 8 µM (≈ 10.1 µg/mL) | 4 µM (≈ 5.07 µg/mL) | 8 µM (≈ 10.1 µg/mL) | 8 µM (≈ 10.1 µg/mL) | 8 µM (≈ 10.1 µg/mL) | 8 µM (≈ 10.1 µg/mL) | 8 µM (≈ 10.1 µg/mL) | 8 µM (≈ 10.1 µg/mL) | Toxicity in human kidney (HK)-2 cells ([4]; 100 μM): 22.9%; NPN uptake (outer membrane permeabilization) (CRAB C0 outer membrane): greater NPN uptake than their L-form peptides; Toxicity in RAW 264.7 cells ([5]; 100 μM): 44.5%; Minimal Inhibitory Concentration (MIC) (K. pneumoniae): 8 µM; MIC (CREC E1): 8 µM (≈ 10.1 µg/mL)
2 | RLWLAIWRR-NH2 [Pro9-3] | 16 µM | 2.5% | 64 µM | 64 µM | >64 µM | >64 µM | 16 µM | 16 µM | 16 µM | 16 µM | 16 µM | 16 µM | 16 µM | 8 µM | 16 µM | 16 µM | 16 µM | 16 µM | 64 µM | 16 µM | Toxicity in HK-2 cells [4]: neither R-Pro9-3 nor Pro9-3 (parent) showed toxicity; Toxicity in RAW 264.7 cells ([5]; up to 100 μM): neither R-Pro9-3 nor Pro9-3 (parent) showed toxicity; Minimal Inhibitory Concentration (MIC) (K. pneumoniae): 64 µM; MIC (CREC E1): 16 µM
3 | RRWIALWLR-NH2 [R-Pro9-3] | 16 µM | 3.4% | 32 µM | 32 µM | 64 µM | 64 µM | 16 µM | 32 µM | 32 µM | 32 µM | 32 µM | 32 µM | 32 µM | 8 µM | 32 µM | 32 µM | 16 µM | 16 µM | 64 µM | 16 µM | Toxicity in HK-2 cells [4]: neither R-Pro9-3 nor Pro9-3 (parent) showed toxicity; Toxicity in RAW 264.7 cells ([5]; up to 100 μM): neither R-Pro9-3 nor Pro9-3 (parent) showed toxicity; Minimal Inhibitory Concentration (MIC) (K. pneumoniae; K. pneumoniae, MH media): 32 µM; Minimal Inhibitory Concentration (MIC) (E. coli [8]; E. coli + Trypsin): >64 µM; Minimal Inhibitory Concentration (MIC) (E. coli [8]; E. coli + α-Chymotrypsin): 64 µM; Minimal Inhibitory Concentration (MIC) (A. baumannii [9]; A. baumannii + Trypsin): >64 µM; Minimal Inhibitory Concentration (MIC) (A. baumannii [9]; A. baumannii + α-Chymotrypsin): >64 µM; MIC (CREC E1): 16 µM
